Experimental data published in patent publication US20100016547A1, “Glycosilated Peptide and Medicine Comprising It as an Effective Ingredient” (priority 2005, published 2010).

Target: T1, GLP-1 receptor (Homo sapiens, UniProt P43220)
Experiment: Assay for production of cAMP
Description: Assay for Production of cAMP
After stirring at room temperature for an hour, the cells were lysed with Triton X-100 (final concentration: 1%).
Quantity of cAMP was determined using cAMP Femtomolar Kit (CIS Bio International). The reaction solution (1 μL) was moved to a new 384-well plate and diluted by adding 9 μL of dilution buffer. Next, each 5 μL of cAMP-XL665 solution and anti-cAMP cryptate solution of the Kit was added, the mixture was incubated at room temperature for an hour, and time-resolved fluorescence was measured using RUBYstar (BMG LABTECH).

T1 sequence (P43220 24-463, species assumed): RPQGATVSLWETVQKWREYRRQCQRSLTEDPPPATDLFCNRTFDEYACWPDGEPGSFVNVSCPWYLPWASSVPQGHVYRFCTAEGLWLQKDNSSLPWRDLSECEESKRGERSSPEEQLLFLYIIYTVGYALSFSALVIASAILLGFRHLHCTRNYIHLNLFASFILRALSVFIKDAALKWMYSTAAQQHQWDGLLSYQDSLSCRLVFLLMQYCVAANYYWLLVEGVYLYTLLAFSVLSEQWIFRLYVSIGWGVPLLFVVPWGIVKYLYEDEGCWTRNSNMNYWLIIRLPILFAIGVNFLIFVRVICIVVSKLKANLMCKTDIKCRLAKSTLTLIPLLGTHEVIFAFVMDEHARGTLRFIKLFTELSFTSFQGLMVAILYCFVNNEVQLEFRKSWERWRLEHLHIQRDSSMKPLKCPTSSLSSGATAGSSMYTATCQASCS

EC50 [nM]	Compound
0.09	CC[C@H](C)[C@H](NC(=O)[C@H](Cc1ccccc1)NC(=O)[C@H](CCC(=O)O)NC(=O)[C@H](CC(N)=O)NC(=O)[C@H](C)NC(=O)[C@H](C)NC(=O)[C@H](CCC(N)=O)NC(=O)CNC(=O)[C@H](CCC(=O)O)NC(=O)[C@H](CC(C)C)NC(=O)[C@H](Cc1ccc(O)cc1)NC(=O)[C@H](CO)NC(=O)[C@H](CO)NC(=O)[C@@H](NC(=O)[C@H](CC(=O)O)NC(=O)[C@H](CO)NC(=O)[C@@H](NC(=O)[C@H](Cc1ccccc1)NC(=O)[C@@H](NC(=O)CNC(=O)[C@H](CCC(=O)O)NC(=O)[C@H](C)NC(=O)[C@@H](N)Cc1c[nH]cn1)[C@@H](C)O)[C@@H](C)O)C(C)C)C(=O)N[C@@H](C)C(=O)N[C@@H](Cc1c[nH]c2ccccc12)C(=O)N[C@@H](CC(C)C)C(=O)N[C@H](C(=O)N[C@@H](CCCCN)C(=O)NCC(=O)N[C@@H](CCCNC(=N)N)C(N)=O)C(C)C [GL26N]
1	CC[C@H](C)[C@H](NC(=O)[C@H](Cc1ccccc1)NC(=O)[C@H](CCC(=O)O)NC(=O)[C@H](CC(=O)N[C@@H]1O[C@H](CO)[C@@H](O[C@@H]2O[C@H](CO[C@]3(C(=O)O)C[C@H](O)[C@@H](NC(C)=O)[C@H]([C@H](O)[C@H](O)CO)O3)[C@H](O)[C@H](O)[C@H]2O)[C@H](O)[C@H]1NC(C)=O)NC(=O)[C@H](C)NC(=O)[C@H](C)NC(=O)[C@H](CCC(N)=O)NC(=O)CNC(=O)[C@H](CCC(=O)O)NC(=O)[C@H](CC(C)C)NC(=O)[C@H](Cc1ccc(O)cc1)NC(=O)[C@H](CO)NC(=O)[C@H](CO)NC(=O)[C@@H](NC(=O)[C@H](CC(=O)O)NC(=O)[C@H](CO)NC(=O)[C@@H](NC(=O)[C@H](Cc1ccccc1)NC(=O)[C@@H](NC(=O)CNC(=O)[C@H](CCC(=O)O)NC(=O)[C@H](C)NC(=O)[C@@H](N)Cc1c[nH]cn1)[C@@H](C)O)[C@@H](C)O)C(C)C)C(=O)N[C@@H](C)C(=O)N[C@@H](Cc1c[nH]c2ccccc12)C(=O)N[C@@H](CC(C)C)C(=O)N[C@H](C(=O)N[C@@H](CCCCN)C(=O)NCC(=O)N[C@@H](CCCNC(=N)N)C(=O)N[C@@H](CC(=O)N[C@@H]1O[C@H](CO)[C@@H](O[C@@H]2O[C@H](CO[C@]3(C(=O)O)C[C@H](O)[C@@H](NC(C)=O)[C@H]([C@H](O)[C@H](O)CO)O3)[C@H](O)[C@H](O)[C@H]2O)[C@H](O)[C@H]1NC(C)=O)C(N)=O)C(C)C [GL2637NS6]

Compound	EC50 [nM]
CC[C@H](C)[C@H](NC(=O)[C@H](Cc1ccccc1)NC(=O)[C@H](CS)NC(=O)[C@H](CCCNC(=N)N)NC(=O)[C@@H](NC(=O)[C@H](C)NC(=O)[C@H](CCC(=O)O)NC(=O)[C@H](CCC(=O)O)NC(=O)[C@H](CCC(=O)O)NC(=O)[C@H](CCSC)NC(=O)[C@H](CCC(N)=O)NC(=O)[C@H](CCCCN)NC(=O)[C@H](CO)NC(=O)[C@H](CC(C)C)NC(=O)[C@H](CC(=O)O)NC(=O)[C@H](CO)NC(=O)[C@@H](NC(=O)[C@H](Cc1ccccc1)NC(=O)[C@@H](NC(=O)CNC(=O)[C@H](CCC(=O)O)NC(=O)CNC(=O)[C@@H](N)Cc1c[nH]cn1)[C@@H](C)O)[C@@H](C)O)C(C)C)C(=O)N[C@@H](CCC(=O)O)C(=O)N[C@@H](Cc1c[nH]c2ccccc12)C(=O)N[C@@H](CC(C)C)C(=O)N[C@@H](CCCCN)C(=O)N[C@@H](CS)C(=O)NCC(=O)NCC(=O)N1CCC[C@H]1C(=O)N[C@@H](CO)C(=O)N[C@@H](CO)C(=O)NCC(=O)N[C@@H](CS)C(=O)N1CCC[C@H]1C(=O)N1CCC[C@H]1C(=O)N1CCC[C@H]1C(=O)N[C@@H](CO)C(=O)N[C@@H](CS)C(N)=O [EX21283540C]	0.055

Target: T1, GLP-1 receptor
Experiment: not given

IC50 [nM]	Compound
21	CC[C@H](C)[C@H](NC(=O)[C@H](Cc1ccccc1)NC(=O)[C@H](CCC(=O)O)NC(=O)[C@H](CC(=O)N[C@@H]1O[C@H](CO)[C@@H](O[C@@H]2O[C@H](CO[C@]3(C(=O)O)C[C@H](O)[C@@H](NC(C)=O)[C@H]([C@H](O)[C@H](O)CO)O3)[C@H](O)[C@H](O)[C@H]2O)[C@H](O)[C@H]1NC(C)=O)NC(=O)[C@H](C)NC(=O)[C@H](C)NC(=O)[C@H](CCC(N)=O)NC(=O)CNC(=O)[C@H](CCC(=O)O)NC(=O)[C@H](CC(C)C)NC(=O)[C@H](Cc1ccc(O)cc1)NC(=O)[C@H](CO)NC(=O)[C@H](CO)NC(=O)[C@@H](NC(=O)[C@H](CC(=O)O)NC(=O)[C@H](CO)NC(=O)[C@@H](NC(=O)[C@H](Cc1ccccc1)NC(=O)[C@@H](NC(=O)CNC(=O)[C@H](CCC(=O)O)NC(=O)[C@H](C)NC(=O)[C@@H](N)Cc1c[nH]cn1)[C@@H](C)O)[C@@H](C)O)C(C)C)C(=O)N[C@@H](C)C(=O)N[C@@H](Cc1c[nH]c2ccccc12)C(=O)N[C@@H](CC(C)C)C(=O)N[C@H](C(=O)N[C@@H](CCCCN)C(=O)NCC(=O)N[C@@H](CCCNC(=N)N)C(=O)N[C@@H](CC(=O)N[C@@H]1O[C@H](CO)[C@@H](O[C@@H]2O[C@H](CO[C@]3(C(=O)O)C[C@H](O)[C@@H](NC(C)=O)[C@H]([C@H](O)[C@H](O)CO)O3)[C@H](O)[C@H](O)[C@H]2O)[C@H](O)[C@H]1NC(C)=O)C(N)=O)C(C)C [GL2637NS6]
0.7	CC[C@H](C)[C@H](NC(=O)[C@H](Cc1ccccc1)NC(=O)[C@H](CCC(=O)O)NC(=O)[C@H](CCCCN)NC(=O)[C@H](C)NC(=O)[C@H](C)NC(=O)[C@H](CCC(N)=O)NC(=O)CNC(=O)[C@H](CCC(=O)O)NC(=O)[C@H](CC(C)C)NC(=O)[C@H](Cc1ccc(O)cc1)NC(=O)[C@H](CO)NC(=O)[C@H](CO)NC(=O)[C@@H](NC(=O)[C@H](CC(=O)O)NC(=O)[C@H](CO)NC(=O)[C@@H](NC(=O)[C@H](Cc1ccccc1)NC(=O)[C@@H](NC(=O)CNC(=O)[C@H](CCC(=O)O)NC(=O)[C@H](C)NC(=O)[C@@H](N)Cc1c[nH]cn1)[C@@H](C)O)[C@@H](C)O)C(C)C)C(=O)N[C@@H](C)C(=O)N[C@@H](Cc1c[nH]c2ccccc12)C(=O)N[C@@H](CC(C)C)C(=O)N[C@H](C(=O)N[C@@H](CC(=O)N[C@@H]1O[C@H](CO)[C@@H](O[C@@H]2O[C@H](CO[C@]3(C(=O)O)C[C@H](O)[C@@H](NC(C)=O)[C@H]([C@H](O)[C@H](O)CO)O3)[C@H](O)[C@H](O)[C@H]2O)[C@H](O)[C@H]1NC(C)=O)C(=O)NCC(=O)N[C@@H](CCCNC(=N)N)C(N)=O)C(C)C [GL34NS6]

Compound	IC50 [nM]
CC[C@H](C)[C@H](NC(=O)[C@H](Cc1ccccc1)NC(=O)[C@H](CCC(=O)O)NC(=O)[C@H](CCCCN)NC(=O)[C@H](C)NC(=O)[C@H](C)NC(=O)[C@H](CCC(N)=O)NC(=O)CNC(=O)[C@H](CCC(=O)O)NC(=O)[C@H](CC(C)C)NC(=O)[C@H](Cc1ccc(O)cc1)NC(=O)[C@H](CO)NC(=O)[C@H](CO)NC(=O)[C@@H](NC(=O)[C@H](CC(=O)O)NC(=O)[C@H](CO)NC(=O)[C@@H](NC(=O)[C@H](Cc1ccccc1)NC(=O)[C@@H](NC(=O)CNC(=O)[C@H](CCC(=O)O)NC(=O)[C@H](C)NC(=O)[C@@H](N)Cc1c[nH]cn1)[C@@H](C)O)[C@@H](C)O)C(C)C)C(=O)N[C@@H](C)C(=O)N[C@@H](Cc1c[nH]c2ccccc12)C(=O)N[C@@H](CC(C)C)C(=O)N[C@H](C(=O)N[C@@H](CC(=O)N[C@@H]1O[C@H](CO)[C@@H](O[C@@H]2O[C@H](CO)[C@@H](O[C@@H]3O[C@H](CO[C@H]4O[C@H](CO)[C@@H](O)[C@H](O)[C@@H]4O[C@@H]4O[C@H](CO)[C@@H](O[C@@H]5O[C@H](CO[C@]6(C(=O)O)C[C@H](O)[C@@H](NC(C)=O)[C@H]([C@H](O)[C@H](O)CO)O6)[C@H](O)[C@H](O)[C@H]5O)[C@H](O)[C@H]4NC(C)=O)[C@@H](O)[C@H](O[C@H]4O[C@H](CO)[C@@H](O)[C@H](O)[C@@H]4O[C@@H]4O[C@H](CO)[C@@H](O[C@@H]5O[C@H](CO[C@]6(C(=O)O)C[C@H](O)[C@@H](NC(C)=O)[C@H]([C@H](O)[C@H](O)CO)O6)[C@H](O)[C@H](O)[C@H]5O)[C@H](O)[C@H]4NC(C)=O)[C@@H]3O)[C@H](O)[C@H]2NC(C)=O)[C@H](O)[C@H]1NC(C)=O)C(=O)NCC(=O)N[C@@H](CCCNC(=N)N)C(N)=O)C(C)C [GL34NE1]	2.7
